In EP0126849A1, “Pharmacologically active N-amino hydantoin derivatives, their synthesis and intermediates” (THE WELLCOME FOUNDATION LIMITED, priority 1983, dated 1984):
Converted amounts (≈) assume the structure as drawn. Like-named read-outs stand apart in the source and are kept apart here.

How the values were obtained:
[1] = test system: mean systemic arterial blood pressure (BP); assay: Cardiovascular actions in rats: fall in blood pressure and duration of the hypotensive effect; format: in vivo, male Wistar rats; settings: for Fall in BP Relative Potency PGE1 / Fall in BP Relative Potency PGI2: anaesthetized rat, i.v. injection; for Fall in BP Relative Potency PGE1: potency ratio against PGE1; for Fall in BP Relative Potency PGI2: potency ratio against PGI2; for Duration t½: time from peak hypotensive response to recovery to half its peak, rat i.v.
Protocol: Anaesthesia was induced in male Wistar rats (250-300 g body weight) with sodium pentobarbitone (30 mg kg^-1, i.v.) and supplemented (3 mg kg^-1) when required. Arterial pressure was recorded from a cannulated femoral artery and heart rate derived from the arterial pulse. Rectal temperature was maintained at 37°C by thermistor-controlled radiant heat. Each compound was injected into a femoral vein in a volume of 0.25 ml and flushed in with 0.2 ml of saline (0.9% w/v). Dose-response relationships for the fall in mean systemic arterial blood pressure (BP) with the hydantoins were constructed and compared to those obtained with PGI2 and PGE, in the same animal, and a potency ratio calculated. […] Figures for Compound X and PGI2 are listed for comparison.

platelet aggregation = assay: Inhibition of platelet aggregation in human platelet-rich plasma (Born-type aggregometer, ADP or other aggregating agent); format: cell-based; settings: for IC50 / Potency relative to PGI2: human PRP; for IC50: 1 min incubation at 37°C before aggregating agent; for Potency relative to PGI2: 1 min incubation, PGI2 = 1; for Increase on Incubation (min) 5: increase in potency after 5 min incubation in PRP
Protocol: Human blood was freshly collected into siliconized (Siloclad; Clay Adams) plastic (Sterilin Ltd.) vessels containing trisodium citrate (3.15%; 0.1 volume with 0.9 volume blood) and centrifuged (200 g for 15 min) at room temperature. The platelet-rich plasma (PRP) was withdrawn into plastic containers and kept at room temperature. Inhibition of […] prior to addition of sufficient adenosine diphosphate (ADP) or other aggregating agent to just cause a non-reversing control aggregation. Dose-inhibition curves were constructed for each compound and the ID50 (dose causing 50% inhibition) was calculated as the dose required to reduce the aggregation to 50% of its control amplitude. […] For comparison, also given are the results upon administration of 5-(6-carboxyhexyl)-1-(3-cyclohexyl-3-hydroxypropyl)hydantoin (Compound X) which is disclosed in UK Specification 1,595,694. -
In this and subsequent biological examples, where a compound number refers to a single diastereoisomer, a mixture of diastereoisomers is indicated by two compound numbers separated by /.

B.P. = assay: Cardiovascular studies in the dog: vasodepressor potency and duration; format: in vivo, Dogs; settings: i.v. bolus
Protocol: Dogs (10-15 kg body weight) were anaesthetized with chloralose (80 mg/kg i.v.) and maintained with subcutaneous injections of pentobarbitone (3 mg/kg). Drugs were administered via a femoral vein by bolus injection and B.P. was recorded from the right femoral artery. Results give vasodepressor potency and t1 2 duration. Figures for Compound X are provided for comparison.

[2] = test system: acid-ethanol induced gastric lesions; assay: Inhibition of acid-ethanol induced gastric lesions in rats (cytoprotection); format: in vivo; settings: rat, oral
Protocol: The inhibition of acid-ethanol induced gastric lesions in rats (cytoprotection) was measured for various doses of orally administered hydantoin. Figures for compound X are given for comparison.

[3] = test system: systemic arterial blood pressure (BP); assay: Concurrent change in systemic arterial blood pressure in anaesthetized rabbits; format: in vivo; settings: anaesthetized rabbit, i.v. infusion, at the ED50 dose
Protocol: Male rabbits (2-2.5 kg body weight) were anaesthetized with sodium pentobarbitone (30 mg/kg, i.v. followed by maintenance doses of 3mg/kg) and systemic arterial blood pressure (BP) was recorded from a cannula filled with heparinized saline (5 units/ml) in a carotid artery; no heparin was administered to the animal. Hydantoins were administered via a cannula in a femoral vein. Blood samples (1.5 ml) were slowly collected into a plastic syringe containing tri-sodium citrate (3.18%, 0.15 ml) from a cannula inserted into a femoral artery, shaken gently and transferred to an Eppendorf plastic tube and spun in a modified Eppendorf centrifuge for 2 sec (Model 5412, maximum centrifugal force 10,000 x g). The PRP was collected and a 0.35 ml aliquot was transferred to the aggregometer and incubated at 37°C for 1 minute prior to addition of sufficient ADP (20 µM) to produce near-maximal aggregation. The time-interval between removal of blood samples and the transference of the PRP to the aggregometer was less than 1.5 min. […] After three control blood samples had been prepared and the control aggregation of the platelets measured, the hydantoin was infused intravenously for 15 min from a Braun slow-infusion apparatus. Blood samples were collected 10 min after the start of the infusion. Two further 10 min. samples post-infusion were collected prior to commencing further infusions. The following results list values of ED50 and change in blood pressure. For comparison, also given are the results obtained upon administration of PGIZ and Compound X.

[4] = test system: rabbit platelet aggregation; assay: Ex vivo rabbit platelet aggregation after i.v. infusion of the hydantoin (ADP 20 µM); format: in vivo, rabbits; settings: i.v. infusion for 15 min, blood sample 10 min after start of infusion
Protocol: Male rabbits (2-2.5 kg body weight) were anaesthetized with sodium pentobarbitone (30 mg/kg, i.v. followed by maintenance doses of 3mg/kg) and systemic arterial blood pressure (BP) was recorded from a cannula filled with
heparinized saline (5 units/ml) in a carotid artery; no heparin was administered to the animal. Hydantoins were administered via a cannula in a femoral vein. Blood samples (1.5 ml) were slowly collected into a plastic syringe containing tri-sodium citrate (3.18%, 0.15 ml) from a cannula inserted into a femoral artery, shaken gently and transferred to an Eppendorf plastic tube and spun in a modified Eppendorf centrifuge for 2 sec (Model 5412, maximum centrifugal force 10,000 x g). The PRP was collected and a 0.35 ml aliquot was transferred to the aggregometer and incubated at 37°C for 1 minute prior to addition of sufficient ADP (20 µM) to produce near-maximal aggregation. The time-interval between removal of blood samples and the transference of the PRP to the aggregometer was less than 1.5 min.
Blood samples were removed at 10 min. intervals once the BP of the rabbit had reached steady resting levels, 10-20 min. following the preparative surgical procedures. After three control blood samples had been prepared and the control aggregation of the platelets measured, the hydantoin was infused intravenously for 15 min from a Braun slow-infusion apparatus. Blood samples were collected 10 min after the start of the infusion. Two further 10 min. samples post-infusion were collected prior to commencing further infusions.
The following results list values of ED50 and change in blood pressure. For comparison, also given are the results obtained upon administration of PGIZ and Compound X.

[5] = Homo sapiens, Platelet, 1 min, read-out: IC50

Row | IC50 (platelet aggregation; [5]) [ng/mL] | Increase on Incubation (min) 5 (platelet aggregation) | IC50 (platelet aggregation) [ngml^-1] | SMILES | Fall in BP Relative Potency PGE1 [1] | Fall in BP Relative Potency PGI2 [1] | Duration t½ [1] [min] | Potency relative to PGI2 (platelet aggregation) | also measured
1 | 1 (≈ 0.00277 µM) | x8 |  | O=C(O)CCCCCCC1C(=O)NC(=O)N1N=CC(O)c1ccccc1 (single isomer, unassigned) [Compound No. 11, 5-(6-carboxyhexyl)-1-(2-hydroxy-2-phenylethylldeneamino)hydantoln] | 1.1 | 0.1 | 16.0 | 0.53 | 
2 | 12.7 (≈ 0.0355 µM) | x1.5 |  | CCCCCC(O)CNN1C(=O)NC(=O)C1CCCCCCC(=O)O (single isomer, unassigned) [Compound No. 35, 5-(6-carboxyhexyl)-I-(2-hydroxyheptylamino)hydantoin] |  | 0.01 | 1.3 | 0.05 | 
3 | 6 (≈ 0.0162 µM) | x7 |  | O=C(O)CCCCCCC1C(=O)NC(=O)N1NCC(O)C1CCCCC1 (single isomer, unassigned) [compound 29, 5-(6-carboxyhexyl)-1-(2-cyclohexyl-2-hydroxyethylamino)hydantoln] | 0.24 | 0.02 | 37 | 0.16 | Δ BP (B.P.; Dose 0.625 ug kg^-1): -26 mm Hg; t1/2 (B.P.; Dose 0.625 ug kg^-1, duration of vasodepressor effect): >30 min; Δ BP (B.P.; Dose 1.25 ug kg^-1): -51 mm Hg; t1/2 (B.P.; Dose 1.25 ug kg^-1, duration of vasodepressor effect): >60 min
4 |  |  |  | CCOC(=O)CCCCCCC1C(=O)NC(=O)N1N=CC(OC(C)=O)C1CCCCC1 (stereo not shown) [4/5, 1-(2-acetoxy-2-cyclohexylethylideneamino)-5-(6-ethoxycarbonylhexyl)hydantoin] |  |  |  |  | % inhibition ([2]; Dose 50 μg kg^-1): 90 ± 6%
5 |  | x2 | 8 | CCCCCC(O)C=NN1C(=O)NC(=O)C1CCCCCCC(=O)O (stereo not shown) [17/18, 5-(6-carboxyhexyl)-1-(2-hydroxyheptylideneamino)hydantoin] | 0.48 | 0.04 | 10 to 19 | 0.12 | 
6 |  |  |  | O=C(O)CCCCCCC1C(=O)NC(=O)N1N=CC(O)Cc1ccccc1 (stereo not shown) [23/24, 5-(6-carboxyhexyl)-1-(2-hydroxy-3-phenylpropylideneamino)hydantoin] |  |  |  |  | % inhibition ([2]; Dose 10 μg kg^-1): 55 ± 15%
7 | 13 (≈ 0.0341 µM) | x6 |  | CN1C(=O)C(CCCCCCC(=O)O)N(N=CC(O)C2CCCCC2)C1=O (stereo not shown) [25/26, 5-(6-carboxyhexyl)-1-(2-cyclohexyl-2-hydroxyethylideneamino)-3-methylhydantoin] | 1.08 | 0.09 | 9 | 0.06 | 
8 |  | x2 | 6 | O=C(O)CCCCCCC1C(=O)NC(=O)N1NCC(O)c1ccccc1 (stereo not shown) [33/34, 5-(6-carboxyhexyl)-1-(2-hydroxy-2-phenylethylamino) hydantoin] | 0.24 | 0.02 | 6 | 0.17 | 
9 | 1.27 (≈ 0.00355 µM) | x1.5 |  | CCCCCC(O)CNN1C(=O)NC(=O)C1CCCCCCC(=O)O (stereo not shown) [35/36, 5-(6-carboxyhexyl)-1-(2-hydroxyheptylamino)hydantoin] |  | 0.06 | 0.1 | 0.49 | 
10 | 3 (≈ 0.00782 µM) | x7 |  | CN1C(=O)C(CCCCCCC(=O)O)N(NCC(O)C2CCCCC2)C1=O (stereo not shown) [37/38] | 0.36 | 0.03 | 17 | 0.18 | % inhibition ([2]; Dose 10 μg kg^-1): 71 ± 7%
11 |  | x2 | 131 | CCCCCC(O)C=NN1C(=O)NC(=O)C1CCCCCCC(=O)O (stereo not shown) [Compound No. 17, 5-(6-carboxyhexyl)-1-(2-hydroxyheptylideneamino)hydantoin] | 0.12 | 0.01 | 3.5 | 0.01 | 
12 | 0.9 (≈ 0.00244 µM) | x6 |  | O=C(O)CCCCCCC1C(=O)NC(=O)N1NCC(O)C1CCCCC1 (stereo not shown) [Compound No. 30, 5-(6-carboxyhexyl)-1-(2-cyclohexyl-2-hydroxyethylamino) hydantoin] | 0.24 | 0.02 | 28 | 0.64 | % inhibition ([2]; Dose 25 μg kg^-1): 65 ± 17%
13 |  | x2 | 5.3 | O=C(O)CCCCCCC1C(=O)NC(=O)N1NCC(O)c1ccccc1 (stereo not shown) [Compound No. 33, 5-(6-carboxyhexyl)-1-(2-hydroxy-2-phenylethylamino)hydantoin] |  |  |  | 0.07 | 
14 |  |  | 175 | O=C(O)CCCCCCC1C(=O)NC(=O)N1NCC(O)c1ccccc1 (stereo not shown) [Compound No. 34, 5-(6-carboxyhexyl)-1-(2-hydroxy-2-phenylethylamino)hydantoin] |  |  |  | 0.003 | 
15 |  |  |  | CCCCC[C@H](O)/C=C/[C@@H]1[C@H]2C/C(=C/CCCC(=O)O)O[C@H]2C[C@H]1O [PGI2, reference compound] | 11.0 |  | 0.3 |  | Δ BP [3]: -20 mmHg; ED50 [4]: 0.2 µg/kg/min
16 | 24 (≈ 0.0683 µM) |  |  | O=C(O)CCCCCCC1C(=O)NC(=O)N1N=CCC1CCCCC1 (stereo not shown) [compound 8, 5-(6-carboxyhexyl)-1-(2-cyclahexylethylideneamino) hydantoin] | 0.11 | 0.01 | 1.0 | 0.05 | % inhibition ([2]; Dose 25 μg kg^-1): 71 ± 6%; % inhibition ([2]; Dose 50 μg kg^-1): 76 ± 11%
